Laboratory results: the NIST ThermoML archive (doi:10.1016/j.jct.2009.07.021)
Where “and” joins values, the source holds several entries; their conditions need not be identical. Equal entries are not always repeated. Numbers after ± are expanded uncertainties.

Assays:
[1] = Crystal, Calculated from knudsen effusion weight loss
[2] = molar enthalpy of transition or fusion; conditions: 298.15 K; Crystal; Clausius-Clapeyron Eq with Heat Capacity

CC(=O)c1cc(-c2ccccc2)sc1C [3-acetyl-2-methyl-5-phenylthiophene]
[1]
Conditions	vapor or sublimation pressure
321.12 K	6.03e-05 ± 3e-06 kPa and 6.33e-05 ± 3.2e-06 kPa and 6.05e-05 ± 3e-06 kPa
323.13 K	7.9e-05 ± 4e-06 kPa and 7.98e-05 ± 4e-06 kPa and 7.73e-05 ± 3.9e-06 kPa
325.21 K	0.000102 ± 5e-06 kPa and 9.93e-05 ± 5e-06 kPa and 0.0001 ± 5e-06 kPa
327.12 K	0.000128 ± 6e-06 kPa and 0.000126 ± 6e-06 kPa and 0.00013 ± 7e-06 kPa
329.16 K	0.000162 ± 8e-06 kPa and 0.00016 ± 8e-06 kPa and 0.000159 ± 8e-06 kPa
331.2 K	0.00021 ± 1.1e-05 kPa and 0.000202 ± 1e-05 kPa and 0.000204 ± 1e-05 kPa
333.12 K	0.000259 ± 1.3e-05 kPa and 0.000261 ± 1.3e-05 kPa and 0.000258 ± 1.3e-05 kPa
335.15 K	0.000328 ± 1.6e-05 kPa and 0.000322 ± 1.6e-05 kPa and 0.000323 ± 1.6e-05 kPa
336.13 K	0.000366 ± 1.8e-05 kPa and 0.000371 ± 1.9e-05 kPa and 0.000368 ± 1.8e-05 kPa
337.2 K	0.000425 ± 2.1e-05 kPa and 0.000414 ± 2.1e-05 kPa and 0.000409 ± 2e-05 kPa
338.15 K	0.000461 ± 2.3e-05 kPa and 0.000462 ± 2.3e-05 kPa and 0.00046 ± 2.3e-05 kPa
339.2 K	0.000535 ± 2.7e-05 kPa and 0.000522 ± 2.6e-05 kPa and 0.000515 ± 2.6e-05 kPa

Conditions	molar enthalpy of transition or fusion [kcal/mol]
[2]	26.03 ± 0.191
